Patent EP2518071A1, “Imidazopyridine derivatives as PI3K inhibitors” (Almirall, S.A., priority 2011, dated 2012)
pIC50: −log10 of the molar value.

molecular target: T1, PI3Kδ (PI3Kd) (Homo sapiens, UniProt O00329); test: PI3K HTRF enzymatic inhibition assay (cell-free, Millipore kit), PI3Kd isoform; type: biochemical; settings: recombinant PI3Kd 0.60 nM, PIP2 2 µM, ATP 20 µM, incubation 8 minutes
T1 construct: purchased Millipore
Description: Compounds were screened for their ability to inhibit PI3Kα (PI3Ka), PI3Kβ (PI3Kb), PI3Kδ (PI3Kd) and PI3Kγ (PI3Kg) using a cell-free based P13K HTRF™ assay (Millipore, ref. #33-017) All reagents to perform the reactions were prepared according to the manufacturer protocol. All PI3K enzymes were recombinant and were purchased at Millipore.
All four assays were performed according to the following procedure: • 1) Dilution curves of compounds were done in 100% DMSO and dispensed in a reservoir plate, typically from column 2 to 11. Column 1 and 12 were used for the negative controls (100% inhibition using a reference PI3K inhibitor for the four isoforms) and the positive controls (0% inhibition using dimethyl sulfoxide (DMSO) only). • 2) Mix of Phosphoinositide 3-kinase (PI3K) + Phosphatidylinositol 4,5-bisphosphate (PIP2) was diluted in buffer (supplied with the kit) and plated in a medium binding black 96-well plate (Greiner ref. #675076) PI3Ka was diluted at 0.25 nM with PIP2 at 2 µM; PI3Kb was diluted at 0.50 nM with PIP2 at 5 µM; PI3Kd was diluted at 0.60 nM with PIP2 at 2 µM and PI3Kg was diluted at 0.30 nM with PIP2 at 10 µM. These concentrations were final in the assay. • 3) A reservoir plate containing Adenosine TriPhosphate (ATP) diluted in the Millipore kit buffer was prepared for each isoform. The final concentration of ATP in the assay was 10 µM, 15 µM, 20 µM and 10 µM for PI3Ka, PI3Kb, PI3Kd and PI3Kg respectively. • 4) Reactions were started by addition to the PI3K+PIP2 plates of the ATP and compounds simultaneously. Incubation was done for 8 minutes (for all four isoforms) then the reaction was stopped by addition of the Stop solution. The Detection solution was added. These solutions were prepared previously according to the kit specifications. The plates were then incubated overnight at RT before reading the signal in an Envision (PerkinElmer), with excitation at 340 nm and emissions at 620 and 665 nm. • 5) Data obtained from the compound curves were normalized in respect to the negative and positive controls, and then fitted by a 4-parameter log curve in ActivityBase (IDBS) in order to determine their potency.

T1 sequence (O00329 whole entry, canonical isoform): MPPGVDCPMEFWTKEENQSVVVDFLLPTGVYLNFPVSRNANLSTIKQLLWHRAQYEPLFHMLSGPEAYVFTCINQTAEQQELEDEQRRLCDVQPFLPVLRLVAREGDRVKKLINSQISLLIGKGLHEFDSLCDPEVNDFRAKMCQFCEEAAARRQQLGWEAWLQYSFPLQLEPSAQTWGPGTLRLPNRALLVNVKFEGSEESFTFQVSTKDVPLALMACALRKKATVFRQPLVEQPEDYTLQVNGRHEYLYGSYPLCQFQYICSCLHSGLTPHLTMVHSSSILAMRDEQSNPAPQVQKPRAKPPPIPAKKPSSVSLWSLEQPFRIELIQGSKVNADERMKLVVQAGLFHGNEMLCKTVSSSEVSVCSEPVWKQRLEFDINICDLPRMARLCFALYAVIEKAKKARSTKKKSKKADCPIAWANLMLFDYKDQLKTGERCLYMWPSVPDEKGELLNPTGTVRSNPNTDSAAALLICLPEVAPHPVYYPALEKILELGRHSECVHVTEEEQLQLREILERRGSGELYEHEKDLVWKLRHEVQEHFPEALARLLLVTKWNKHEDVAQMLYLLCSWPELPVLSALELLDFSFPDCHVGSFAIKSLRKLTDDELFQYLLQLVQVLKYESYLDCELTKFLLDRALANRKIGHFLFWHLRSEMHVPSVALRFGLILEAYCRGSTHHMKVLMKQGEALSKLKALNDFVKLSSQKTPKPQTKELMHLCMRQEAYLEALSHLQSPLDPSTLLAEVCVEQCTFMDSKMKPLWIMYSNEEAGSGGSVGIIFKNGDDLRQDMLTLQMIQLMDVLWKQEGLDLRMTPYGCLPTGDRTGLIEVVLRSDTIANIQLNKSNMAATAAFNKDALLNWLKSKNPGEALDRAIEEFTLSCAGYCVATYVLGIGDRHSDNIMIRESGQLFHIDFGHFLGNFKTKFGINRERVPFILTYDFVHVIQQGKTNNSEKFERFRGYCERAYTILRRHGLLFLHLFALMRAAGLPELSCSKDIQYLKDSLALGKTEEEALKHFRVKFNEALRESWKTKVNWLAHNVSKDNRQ
T1 sequence (P27986 whole entry partner, canonical isoform): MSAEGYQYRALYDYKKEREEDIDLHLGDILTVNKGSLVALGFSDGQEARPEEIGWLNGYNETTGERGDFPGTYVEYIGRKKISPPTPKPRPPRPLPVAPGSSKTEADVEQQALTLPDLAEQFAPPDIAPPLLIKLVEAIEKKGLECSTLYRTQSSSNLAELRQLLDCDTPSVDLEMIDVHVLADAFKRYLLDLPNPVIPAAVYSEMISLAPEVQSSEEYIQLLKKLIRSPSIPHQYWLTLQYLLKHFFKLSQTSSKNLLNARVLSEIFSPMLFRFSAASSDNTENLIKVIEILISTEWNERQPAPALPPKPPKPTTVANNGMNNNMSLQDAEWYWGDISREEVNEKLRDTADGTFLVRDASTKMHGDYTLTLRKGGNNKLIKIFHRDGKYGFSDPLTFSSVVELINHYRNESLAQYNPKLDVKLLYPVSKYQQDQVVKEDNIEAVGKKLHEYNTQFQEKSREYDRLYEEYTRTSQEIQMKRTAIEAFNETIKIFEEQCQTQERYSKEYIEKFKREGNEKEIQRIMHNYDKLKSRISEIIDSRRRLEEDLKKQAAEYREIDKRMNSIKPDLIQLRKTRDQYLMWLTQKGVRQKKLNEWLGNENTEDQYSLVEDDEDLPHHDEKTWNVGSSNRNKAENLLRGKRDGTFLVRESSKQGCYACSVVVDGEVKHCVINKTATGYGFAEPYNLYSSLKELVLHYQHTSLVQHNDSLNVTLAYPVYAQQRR

| pIC50 | SMILES |
| --- | --- |
| 7.50 | COc1ccc2nc([C@H](C)Nc3ncnc4[nH]cnc34)n(-c3ccccc3)c2n1 [Example 10, (S)-N-(1-(5-Methoxy-3-phenyl-3H-imidazo[4,5-b]pyridin-2-yl)ethyl)-9H-purin-6-amine] |
| 7.84 | CC[C@H](Nc1ncnc2[nH]cnc12)c1nc2ccc(OC)nc2n1-c1ccccc1 [Example 14, (S)-N-(1-(5-Methoxy-3-phenyl-3H-imidazo[4,5-b]pyridin-2-yl)propyl)-9H-purin-6-amine] |
| 7.65 | COc1ccc2nc([C@H](C)Nc3ncnc(N)c3C#N)n(-c3ccccc3)c2n1 [Example 21, (S)-4-Amino-6-(1-(5-methoxy-3-phenyl-3H-imidazo[4,5-b]pyridin-2-yl)ethylamino)pyrimidine-5-carbonitrile] |
| 6.78 | C[C@H](Nc1ncnc2[nH]cnc12)c1nc2cc(F)cnc2n1-c1ccccc1 [Example 37, N-[(1S)-1-(6-Fluoro-3-phenyl-3H-imidazo[4,5-b]pyridin-2-yl)ethyl]-9H-purin-6-amine] |

Continued, molecule first:

| SMILES | pIC50 |
| --- | --- |
| C[C@H](Nc1nc(N)nc2[nH]cnc12)c1nc2cccnc2n1-c1ccccc1 [Example 9, (S)-N6-(1-(3-Phenyl-3H-imidazo[4,5-b]pyridin-2-yl)ethyl)-9H-purine-2,6-diamine] | 7.07 |
| C[C@H](Nc1ncnc2[nH]cnc12)c1nc2cccnc2n1-c1cc(F)cc(F)c1 [Example 12, (S)-N-(1-(3-(3,5-Difluorophenyl)-3H-imidazo[4,5-b]pyridin-2-yl)ethyl)-9H-purin-6-amine] | 6.73 |
| COc1ccc2nc([C@H](C)Nc3ncnc4[nH]cnc34)n(-c3cc(F)cc(F)c3)c2n1 [Example 15, (S)-N-(1-(3-(3,5-Difluorophenyl)-5-methoxy-3H-imidazo[4,5-b]pyridin-2-yl)ethyl)-9H-purin-6-amine] | 7.96 |
| C[C@H](Nc1ncnc(N)c1C#N)c1nc2cccnc2n1-c1ccccc1 [Example 19, (S)-4-Amino-6-(1-(3-phenyl-3H-imidazo[4,5-b]pyridin-2-yl)ethylamino)pyrimidine-5-carbonitrile] | 6.88 |
| Cc1ccc2nc([C@H](C)Nc3ncnc(N)c3C#N)n(-c3ccccc3)c2n1 [Example 25, (S)-4-Amino-6-(1-(5-methyl-3-phenyl-3H-imidazo[4,5-b]pyridin-2-yl)ethylamino)pyrimidine-5-carbonitrile] | 7.28 |
| Cc1ccc2nc([C@H](C)Nc3ccnc4ccnn34)n(-c3ccccc3)c2n1 [Example 26, (S)-N-(1-(5-Methyl-3-phenyl-3H-imidazo[4,5-b]pyridin-2-yl)ethyl)pyrazolo[1,5-a]pyrimidin-7-amine] | 6.16 |
| C[C@H](Nc1ncnc2[nH]cnc12)c1nc2cccnc2n1-c1ccccc1Cl [Example 39, N-{(1S)-1-[3-(2-Chlorophenyl)-3H-imidazo[4,5-b]pyridin-2-yl]ethyl}-9H-purin-6-amine] | 6.67 |
| C[C@H](Nc1ncnc2[nH]cnc12)c1nc2ncccc2n1-c1ccccc1 [Example 43, (S)-N-(1-(1-Phenyl-1H-imidazo[4,5-b]pyridin-2-yl)ethyl)-9H-purin-6-amine] | 5.74 |
